Source: publication PMC9127750, “Structure-based design of CDC42 effector interaction inhibitors for the treatment of cancer” (Cell reports, 2022)
Values joined by “and” are separate entries in the source; they are usually repeats but may differ in a detail not shown here. Equal values may be shown once.

Tested on: WM3248 melanoma cells, 486 antibodies
Experiment: Reverse phase protein arrays (RPPA)
Type: cell-based, Human
Conditions: normalized to 0
Excerpt: Pellets were snap frozen in liquid nitrogen and shipped to MD Anderson Cancer Center core RPPA facility for RPPA analysis (Table S5). Three biological replicates for each sample were generated.
Nomenclatures on the RPPA heatmaps: name_of_antibody.species_of_antibody.status_of_antibody. V - antibody validated; C - validation of antibody in progress; Q - antibody nonspecific; E – under evaluation; antibodies raised in M - mouse, G - goat, R - rabbit, or T - rat.

CN(C)c1cccc(Nc2cc(-c3ccccc3)nc(C3CCNCC3)n2)c1 [ARN22089, N1,N1-dimethyl-N3-(6-phenyl-2-(piperidin-4-yl)pyrimidin-4-yl)benzene-1,3-diamine]
EMA.M.C Norm_5 Average (5, average): 0.850
ENY2.M.C Norm_5 Average (5, average): 0.965
ER.a.R.V Norm_5 Average (5, average): 1.001
ERCC1.R.C Norm_5 Average (5, average): 0.948
ERCC5.R.C Norm_5 Average (5, average): 1.084
ERRalpha.R.V Norm_5 Average (5, average): 0.950
EVI1.R.V Norm_5 Average (5, average): 0.922
Elk1_pS383.R.C Norm_5 Average (5, average): 1.032
Enolase.1.R.V Norm_5 Average (5, average): 1.052
Enolase.2.R.V Norm_5 Average (5, average): 0.966
EphA2.R.V Norm_5 Average (5, average): 0.884
EphA2_pS897.R.C Norm_5 Average (5, average): 0.843
EphA2_pY588.R.C Norm_5 Average (5, average): 0.929
Erk5.R.V Norm_5 Average (5, average): 1.026
FABP5.R.C Norm_5 Average (5, average): 0.959
FAK.R.C Norm_5 Average (5, average): 0.977
FAK_pY397.R.V Norm_5 Average (5, average): 0.931
FANCD2.R.V Norm_5 Average (5, average): 0.930
FASN.R.V Norm_5 Average (5, average): 1.111
FGF.basic.R.C Norm_5 Average (5, average): 0.987
FN14.R.C Norm_5 Average (5, average): 1.118
FOXM1.R.V Norm_5 Average (5, average): 0.915
FOXO3.R.V Norm_5 Average (5, average): 1.012
FRS2.alpha_pY196.R.V Norm_5 Average (5, average): 0.996
FTO.R.V Norm_5 Average (5, average): 1.020
Fibronectin.R.V Norm_5 Average (5, average): 1.193
FoxO3a_pS318_S321.R.C Norm_5 Average (5, average): 0.972
G6PD.R.V Norm_5 Average (5, average): 0.950
GATA3.M.V Norm_5 Average (5, average): 1.077
GATA6.R.V Norm_5 Average (5, average): 0.971
GCLM.R.V Norm_5 Average (5, average): 0.967
GCN5L2.R.V Norm_5 Average (5, average): 1.021
GGPS1.M.V Norm_5 Average (5, average): 0.977
GRB2.R.V Norm_5 Average (5, average): 1.022
GRB7.R.V Norm_5 Average (5, average): 0.976
GSK.3a.b.M.V Norm_5 Average (5, average): 0.937
GSK.3a.b_pS21_S9.R.V Norm_5 Average (5, average): 1.111
Gab2.R.V Norm_5 Average (5, average): 1.100
Gli1.R.C Norm_5 Average (5, average): 0.999
Gli3.R.C Norm_5 Average (5, average): 1.056
Glucocorticoid.Receptor.R.V Norm_5 Average (5, average): 1.053
Glutamate.D1.2.R.V Norm_5 Average (5, average): 0.990
Grp75.R.C Norm_5 Average (5, average): 1.021
Gys.R.V Norm_5 Average (5, average): 0.987
Gys_pS641.R.V Norm_5 Average (5, average): 0.978
H2AX_pS139.R.C Norm_5 Average (5, average): 1.026
H2AX_pS140.M.C Norm_5 Average (5, average): 0.967
HER2.M.V Norm_5 Average (5, average): 0.971
HER2_pY1248.R.V Norm_5 Average (5, average): 1.023
HER3.R.V Norm_5 Average (5, average): 0.924
HER3_pY1289.R.C Norm_5 Average (5, average): 1.060
HES1.R.V Norm_5 Average (5, average): 1.168
eEF2.R.C Norm_5 Average (5, average): 1.217
eEF2K.R.V Norm_5 Average (5, average): 1.024
eIF4E.R.V Norm_5 Average (5, average): 1.028
eIF4E_pS209.R.V Norm_5 Average (5, average): 0.945
DNMT1.R.V Norm_5 (5, replicates 1-3): 0.988 and 0.998 and 1.098
DRP1.R.V Norm_5 (5, replicates 1-3): 0.998 and 1.001
DUSP4.R.V Norm_5 (5, replicates 1-3): 1.082 and 1.118 and 1.119
DUSP6.R.C Norm_5 (5, replicates 1-3): 1.285 and 1.005 and 1.269
DYRK1B.R.C Norm_5 (5, replicates 1-3): 0.880 and 0.877 and 1.004
Dvl3.R.V Norm_5 (5, replicates 1-3): 0.981 and 1.018 and 0.968
E2F1.R.V Norm_5 (5, replicates 1-3): 0.990 and 0.958 and 0.964
E.Cadherin.R.V Norm_5 (5, replicates 1-3): 0.812 and 0.783 and 0.958
EGFR.R.V Norm_5 (5, replicates 1-3): 0.998 and 1.139 and 0.952
EGFR_pY1068.R.C Norm_5 (5, replicates 1-3): 0.901 and 0.903 and 1.000
EGFR_pY1173.R.V Norm_5 (5, replicates 1-3): 1.024 and 1.026 and 1.016
EMA.M.C Norm_5 (5, replicates 1-3): 0.673 and 0.895 and 0.983
ENY2.M.C Norm_5 (5, replicates 1-3): 0.935 and 1.052 and 0.908
ER.a.R.V Norm_5 (5, replicates 1-3): 0.980 and 1.004 and 1.018
ER.a_pS118.R.V Norm_5 (5, replicates 1-3): 1.247
ERCC1.R.C Norm_5 (5, replicates 1-3): 0.895 and 0.962 and 0.988
ERCC5.R.C Norm_5 (5, replicates 1-3): 1.145
ERRalpha.R.V Norm_5 (5, replicates 1-3): 0.932 and 0.933 and 0.985
EVI1.R.V Norm_5 (5, replicates 1-3): 0.871 and 0.956 and 0.940
Elk1_pS383.R.C Norm_5 (5, replicates 1-3): 1.029
Enolase.1.R.V Norm_5 (5, replicates 1-3): 1.006 and 1.195 and 0.954
Enolase.2.R.V Norm_5 (5, replicates 1-3): 0.936 and 1.012
EphA2.R.V Norm_5 (5, replicates 1-3): 0.843 and 0.933 and 0.875
EphA2_pS897.R.C Norm_5 (5, replicates 1-3): 0.767 and 0.950 and 0.814
EphA2_pY588.R.C Norm_5 (5, replicates 1-3): 0.881 and 0.946 and 0.960
Erk5.R.V Norm_5 (5, replicates 1-3): 0.987 and 1.054
Ets.1.R.V Norm_5 (5, replicates 1-3): 1.139 and 1.226 and 0.851
FABP5.R.C Norm_5 (5, replicates 1-3): 1.017 and 1.210 and 0.650
FAK.R.C Norm_5 (5, replicates 1-3): 0.898 and 1.113 and 0.922
FAK_pY397.R.V Norm_5 (5, replicates 1-3): 0.881 and 0.907 and 1.006
FANCD2.R.V Norm_5 (5, replicates 1-3): 0.905 and 0.913 and 0.972
FASN.R.V Norm_5 (5, replicates 1-3): 1.237 and 1.011 and 1.085
FGF.basic.R.C Norm_5 (5, replicates 1-3): 0.849
FN14.R.C Norm_5 (5, replicates 1-3): 1.117 and 1.165
FOXM1.R.V Norm_5 (5, replicates 1-3): 0.776 and 0.924 and 1.046
FOXO3.R.V Norm_5 (5, replicates 1-3): 0.964 and 1.056 and 1.017
FRS2.alpha_pY196.R.V Norm_5 (5, replicates 1-3): 0.883 and 1.011
FTO.R.V Norm_5 (5, replicates 1-3): 1.133 and 0.883
Fibronectin.R.V Norm_5 (5, replicates 1-3): 1.256 and 1.230
FoxO3a_pS318_S321.R.C Norm_5 (5, replicates 1-3): 0.972 and 1.006
G6PD.R.V Norm_5 (5, replicates 1-3): 0.921 and 1.016 and 0.913
GATA3.M.V Norm_5 (5, replicates 1-3): 1.233 and 0.961
GATA6.R.V Norm_5 (5, replicates 1-3): 0.980 and 0.952 and 0.979
GCLC.R.C Norm_5 (5, replicates 1-3): 1.128 and 0.940
GCLM.R.V Norm_5 (5, replicates 1-3): 0.953 and 1.003
GCN5L2.R.V Norm_5 (5, replicates 1-3): 0.975 and 1.052
GGPS1.M.V Norm_5 (5, replicates 1-3): 0.942
GRB2.R.V Norm_5 (5, replicates 1-3): 0.966 and 1.023 and 1.076
GRB7.R.V Norm_5 (5, replicates 1-3): 1.030 and 0.936 and 0.962
GSK.3B.R.C Norm_5 (5, replicates 1-3): 0.980 and 1.031 and 1.125
GSK.3a.b.M.V Norm_5 (5, replicates 1-3): 1.010 and 0.971 and 0.830
GSK.3a.b_pS21_S9.R.V Norm_5 (5, replicates 1-3): 1.277 and 1.230
Gab2.R.V Norm_5 (5, replicates 1-3): 1.236 and 1.059 and 1.006
Gli1.R.C Norm_5 (5, replicates 1-3): 0.936 and 0.961 and 1.099
Gli3.R.C Norm_5 (5, replicates 1-3): 1.128 and 1.124 and 0.916
Glucocorticoid.Receptor.R.V Norm_5 (5, replicates 1-3): 1.063 and 1.061 and 1.034
Glutamate.D1.2.R.V Norm_5 (5, replicates 1-3): 1.128 and 0.932
Glutaminase.R.C Norm_5 (5, replicates 1-3): 1.249 and 0.891
Granzyme.B.R.V Norm_5 (5, replicates 1-3): 1.216 and 0.936
Grp75.R.C Norm_5 (5, replicates 1-3): 0.988 and 1.124 and 0.950
Gys.R.V Norm_5 (5, replicates 1-3): 0.964 and 0.981 and 1.016
Gys_pS641.R.V Norm_5 (5, replicates 1-3): 1.014 and 0.854
H2AX_pS139.R.C Norm_5 (5, replicates 1-3): 1.023 and 1.013
H2AX_pS140.M.C Norm_5 (5, replicates 1-3): 0.966 and 1.110 and 0.827
HER2.M.V Norm_5 (5, replicates 1-3): 0.993 and 0.940 and 0.980
HER2_pY1248.R.V Norm_5 (5, replicates 1-3): 0.876 and 1.016
HER3.R.V Norm_5 (5, replicates 1-3): 0.898 and 0.946 and 0.928
HER3_pY1289.R.C Norm_5 (5, replicates 1-3): 1.034 and 1.212 and 0.933
HES1.R.V Norm_5 (5, replicates 1-3): 1.299 and 1.047 and 1.158
Heregulin.R.V Norm_5 (5, replicates 1-3): 1.014 and 1.131 and 1.059
eEF2.R.C Norm_5 (5, replicates 1-3): 1.519 and 1.622 and 0.509
eEF2K.R.V Norm_5 (5, replicates 1-3): 1.078 and 1.168
eIF4E.R.V Norm_5 (5, replicates 1-3): 0.986 and 1.010
eIF4E_pS209.R.V Norm_5 (5, replicates 1-3): 0.988 and 0.981
eIF4G.R.C Norm_5 (5, replicates 1-3): 1.060 and 1.058 and 1.164
DNMT1.R.V Norm_10 Average (10, average): 1.056
DRP1.R.V Norm_10 Average (10, average): 0.998
DUSP4.R.V Norm_10 Average (10, average): 0.891
DUSP6.R.C Norm_10 Average (10, average): 1.050
DYRK1B.R.C Norm_10 Average (10, average): 0.948
Dvl3.R.V Norm_10 Average (10, average): 0.962
E2F1.R.V Norm_10 Average (10, average): 1.083
E.Cadherin.R.V Norm_10 Average (10, average): 0.939
EGFR.R.V Norm_10 Average (10, average): 0.975
EGFR_pY1068.R.C Norm_10 Average (10, average): 0.957
EMA.M.C Norm_10 Average (10, average): 0.953
ER.a.R.V Norm_10 Average (10, average): 0.921
ERCC5.R.C Norm_10 Average (10, average): 0.962
ERRalpha.R.V Norm_10 Average (10, average): 1.014
EVI1.R.V Norm_10 Average (10, average): 1.011
Elk1_pS383.R.C Norm_10 Average (10, average): 0.998
Enolase.1.R.V Norm_10 Average (10, average): 1.160
EphA2.R.V Norm_10 Average (10, average): 0.919
EphA2_pS897.R.C Norm_10 Average (10, average): 0.866
EphA2_pY588.R.C Norm_10 Average (10, average): 0.941
Erk5.R.V Norm_10 Average (10, average): 0.877
Ets.1.R.V Norm_10 Average (10, average): 1.306
FABP5.R.C Norm_10 Average (10, average): 1.237
FAK.R.C Norm_10 Average (10, average): 0.954
FANCD2.R.V Norm_10 Average (10, average): 0.930
FASN.R.V Norm_10 Average (10, average): 0.962
FGF.basic.R.C Norm_10 Average (10, average): 0.946
FOXM1.R.V Norm_10 Average (10, average): 0.929
FOXO3.R.V Norm_10 Average (10, average): 1.081
FRS2.alpha_pY196.R.V Norm_10 Average (10, average): 1.373
FTO.R.V Norm_10 Average (10, average): 1.099
Fibronectin.R.V Norm_10 Average (10, average): 1.015
